# Measurements: patent US8697739B2, “Bicyclic acetyl-CoA carboxylase inhibitors and uses thereof” (Novartis AG, priority 2010, dated 2014)
# Target: T1, human acetyl-CoA carboxylase 2 (ACC2) (Homo sapiens, UniProt O00763)
# T1 construct: The cDNA encoding amino acids 144 to 2458 of human acetyl-CoA carboxylase 2; made in house; host or cells: Sf9 insect cells (baculovirus, pFastBac1)
# Assay: Acetyl-CoA carboxylase enzyme assay (malonyl-CoA formation by LC/MS/MS)
# Format: biochemical
# Details: recombinant human ACC2 (aa 144-2458); read-out: IC50 ACC2
# Summary of the method: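 Malonyl-CoA formation was read by LC/MS/MS MRM against a [13C3]-malonyl-CoA internal standard, after acetic acid quench. The enzyme was baculovirus/Sf9-expressed human ACC2 residues 144–2458, given 15 minutes room-temperature compound preincubation in HEPES pH 7.5 buffer with MgCl2, citrate and DTT. Substrate solution held 50 μM acetyl-CoA, 120 μM ATP and 2 mM KHCO3.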
# T1 sequence (O00763 144-2458): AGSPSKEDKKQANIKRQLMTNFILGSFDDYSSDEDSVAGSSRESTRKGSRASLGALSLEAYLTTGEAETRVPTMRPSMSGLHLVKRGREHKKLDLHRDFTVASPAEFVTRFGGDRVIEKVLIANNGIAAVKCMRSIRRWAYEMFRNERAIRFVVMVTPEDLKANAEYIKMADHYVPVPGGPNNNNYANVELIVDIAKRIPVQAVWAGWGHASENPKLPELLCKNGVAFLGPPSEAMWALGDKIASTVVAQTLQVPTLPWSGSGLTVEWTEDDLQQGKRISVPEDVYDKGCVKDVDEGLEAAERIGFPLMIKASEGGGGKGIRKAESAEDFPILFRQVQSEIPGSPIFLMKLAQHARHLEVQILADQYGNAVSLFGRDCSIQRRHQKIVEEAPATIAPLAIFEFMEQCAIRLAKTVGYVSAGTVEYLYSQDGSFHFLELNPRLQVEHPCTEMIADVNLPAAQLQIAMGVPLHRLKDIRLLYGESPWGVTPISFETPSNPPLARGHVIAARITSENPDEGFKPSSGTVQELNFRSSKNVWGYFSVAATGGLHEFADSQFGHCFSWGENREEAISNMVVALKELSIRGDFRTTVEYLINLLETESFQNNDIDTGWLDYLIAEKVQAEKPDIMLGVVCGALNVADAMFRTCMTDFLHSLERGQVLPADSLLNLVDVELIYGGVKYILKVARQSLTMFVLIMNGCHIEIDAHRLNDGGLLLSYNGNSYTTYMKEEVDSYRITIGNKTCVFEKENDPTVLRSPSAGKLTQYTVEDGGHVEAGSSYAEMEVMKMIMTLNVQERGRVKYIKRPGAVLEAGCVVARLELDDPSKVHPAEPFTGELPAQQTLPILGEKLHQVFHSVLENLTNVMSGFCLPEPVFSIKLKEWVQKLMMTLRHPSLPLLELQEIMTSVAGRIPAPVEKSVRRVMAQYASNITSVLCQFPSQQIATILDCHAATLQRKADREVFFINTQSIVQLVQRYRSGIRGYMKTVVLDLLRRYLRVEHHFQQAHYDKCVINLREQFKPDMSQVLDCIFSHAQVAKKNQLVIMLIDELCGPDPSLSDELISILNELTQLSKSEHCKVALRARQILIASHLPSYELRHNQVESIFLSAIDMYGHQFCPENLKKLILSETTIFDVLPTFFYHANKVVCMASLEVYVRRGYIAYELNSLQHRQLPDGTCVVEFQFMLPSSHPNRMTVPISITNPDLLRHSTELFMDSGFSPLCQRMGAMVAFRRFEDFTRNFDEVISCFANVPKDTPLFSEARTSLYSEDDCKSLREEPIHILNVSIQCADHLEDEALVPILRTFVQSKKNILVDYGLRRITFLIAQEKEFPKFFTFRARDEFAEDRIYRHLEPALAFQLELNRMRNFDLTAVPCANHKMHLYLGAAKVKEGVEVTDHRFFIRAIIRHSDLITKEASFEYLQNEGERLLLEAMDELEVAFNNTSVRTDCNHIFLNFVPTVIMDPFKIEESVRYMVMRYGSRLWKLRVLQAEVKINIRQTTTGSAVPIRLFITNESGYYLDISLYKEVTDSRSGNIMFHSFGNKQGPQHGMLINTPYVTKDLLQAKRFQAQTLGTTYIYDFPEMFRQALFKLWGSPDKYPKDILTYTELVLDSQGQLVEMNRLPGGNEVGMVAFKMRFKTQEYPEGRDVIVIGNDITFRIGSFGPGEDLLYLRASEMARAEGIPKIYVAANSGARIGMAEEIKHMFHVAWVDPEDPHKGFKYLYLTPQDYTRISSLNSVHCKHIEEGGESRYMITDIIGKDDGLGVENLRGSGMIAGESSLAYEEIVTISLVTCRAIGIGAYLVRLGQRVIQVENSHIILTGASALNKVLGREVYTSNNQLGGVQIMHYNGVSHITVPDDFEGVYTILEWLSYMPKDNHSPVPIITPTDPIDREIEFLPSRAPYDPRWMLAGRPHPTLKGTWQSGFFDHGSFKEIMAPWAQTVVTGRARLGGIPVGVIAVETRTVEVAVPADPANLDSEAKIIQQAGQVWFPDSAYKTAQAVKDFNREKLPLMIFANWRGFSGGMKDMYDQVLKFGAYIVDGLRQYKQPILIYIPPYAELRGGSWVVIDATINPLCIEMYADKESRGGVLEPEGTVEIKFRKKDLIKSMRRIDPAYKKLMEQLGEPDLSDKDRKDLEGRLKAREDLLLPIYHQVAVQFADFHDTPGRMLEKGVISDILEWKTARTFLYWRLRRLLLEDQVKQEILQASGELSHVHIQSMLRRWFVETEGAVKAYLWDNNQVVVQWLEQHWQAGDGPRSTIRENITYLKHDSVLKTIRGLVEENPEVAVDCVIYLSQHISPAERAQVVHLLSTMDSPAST
row,IC50,Compound
1,0.015 µM,"COc1ccc(-c2cc3ccc(S(=O)(=O)N[C@H]4CC[C@H](C(=O)N[C@@H](CO)C5CC5)CC4)cc3n2C)cc1 [Example 445, (1r,4R)-N-((R)-1-cyclopropyl-2-hydroxyethyl)-4-(2-(4-methoxyphenyl)-1-methyl-1H-indole-6-sulfonamido)cyclohexanecarboxamide]"
2,0.04 µM,"CC1CCc2ccc(S(=O)(=O)N[C@H]3CC[C@H](C(=O)N[C@H](C)c4ccc(F)cc4)CC3)cc2N1 (stereo partly drawn) [Example 168, (1r,4R)-N-((R)-1-(4-fluorophenyl)ethyl)-4-(2-methyl-1,2,3,4-tetrahydroquinoline-7-sulfonamido)cyclohexanecarboxamide]"
3,0.18 µM,"C[C@@H](NC(=O)[C@H]1CC[C@H](NS(=O)(=O)c2ccc3nc(N4CCCCC4)ccc3c2)CC1)c1ccc(F)cc1 [Example 216, (1r,4R)-N-((R)-1-(4-fluorophenyl)ethyl)-4-(2-(piperidin-1-yl)quinoline-6-sulfonamido)cyclohexanecarboxamide]"
4,0.01 µM,"Cn1c(-c2ccccc2)cc2ccc(S(=O)(=O)N[C@H]3CC[C@H](C(=O)N4CCC[C@@H](C(C)(C)O)C4)CC3)cc21 [Example 403, N-((1R,4r)-4-((R)-3-(2-hydroxypropan-2-yl)piperidine-1-carbonyl)cyclohexyl)-1-methyl-2-phenyl-1H-indole-6-sulfonamide]"
5,0.01 µM,"C[C@@H](NC(=O)[C@H]1CC[C@H](NS(=O)(=O)c2ccc3ccccc3c2)CC1)c1ccc(F)cc1 [Example 677, (1r,4R)-N-((R)-1-(4-fluorophenyl)ethyl)-4-(naphthalene-2-sulfonamido)cyclohexanecarboxamide]"
6,< 0.01 µM,"Cn1c(-c2ccccc2)cc2ccc(S(=O)(=O)N[C@H]3CC[C@H](C(=O)N[C@H](CO)c4ccccc4)CC3)cc21 [Example 353, (1r,4S)-N-((S)-2-hydroxy-1-phenylethyl)-4-(1-methyl-2-phenyl-1H-indole-6-sulfonamido)cyclohexanecarboxamide]"
7,0.125 µM,"CC(NC(=O)C1CCC(NS(=O)(=O)c2cnc3c(c2)NC2CCCCC2N3)CC1)c1ccc(F)cc1 [Example 162, (1S,4R)-N-((R)-1-(4-fluorophenyl)ethyl)-4-((5aS,9aS)-5,5a,6,7,8,9,9a,10-octahydropyrido[3,2-b]quinoxaline-3-sulfonamido)cyclohexanecarboxamide]"
8,0.015 µM,"C[C@@H](NC(=O)[C@H]1CC[C@H](NS(=O)(=O)c2ccc3oc4ccccc4c3c2)CC1)c1ccc(F)cc1 [Example 243, (1r,4R)-4-(dibenzo[b,d]furan-2-sulfonamido)-N-((R)-1-(4-fluorophenyl)ethyl)cyclohexanecarboxamide]"
9,0.045 µM,"Cn1c(CCC(=O)O)c(Cl)c2ccc(S(=O)(=O)N[C@H]3CC[C@H](C(=O)N4CCCC4c4ccc(F)cc4)CC3)cc21 (some centres unmarked) [Example 372, 3-(3-chloro-6-(N-((1r,4r)-4-(2-(4-fluorophenyl)pyrrolidine-1-carbonyl)cyclohexyl)sulfamoyl)-1-methyl-1H-indol-2-yl)propanoic acid]"
10,0.035 µM,"C[C@@H](NC(=O)C1CCC(NS(=O)(=O)c2cnc3c(c2)N[C@H](Cc2ccccc2)CS3)CC1)c1ccc(F)cc1 (stereo partly drawn) [Example 190, 4-((R)-2-benzyl-2,3-dihydro-1H-pyrido[2,3-b][1,4]thiazine-7-sulfonamido)-N-((R)-1-(4-fluorophenyl)ethyl)cyclohexanecarboxamide]"
11,0.256 µM,"O=C(NC1CC1)[C@H]1CC[C@H](NS(=O)(=O)c2ccc3[nH]c(-c4ccccc4)nc3c2)CC1 [Example 635, (1r,4r)-N-cyclopropyl-4-(2-phenyl-1H-benzo[d]imidazole-5-sulfonamido)cyclohexanecarboxamide]"
12,< 0.01 µM,"COCc1ccc(-c2cc3ccc(S(=O)(=O)N[C@H]4CC[C@H](C(=O)N5CCOC[C@@H]5C5CC5)CC4)cc3[nH]2)cc1 [Example 455, N-((1S,4r)-4-((S)-3-cyclopropylmorpholine-4-carbonyl)cyclohexyl)-2-(4-(methoxymethyl)phenyl)-1H-indole-6-sulfonamide]"

# Continued, compound first:
row,Compound,IC50
1,"CNCc1ccc(-c2nc3cc(S(=O)(=O)Nc4ccc(C(=O)OC(C)C)cc4)ccc3[nH]2)cc1 [Example 559, isopropyl 4-(2-(4-((methylamino)methyl)phenyl)-1H-benzo[d]imidazole-5-sulfonamido)benzoate]",0.163 µM
2,COc1ccccc1-c1cc2ccc(S(=O)(=O)N[C@H]3CC[C@H](C(=O)N[C@H](C)c4ccc(F)cc4)CC3)cc2[nH]1 [Example 293],0.038 µM
3,"CC(C)(C)c1nnc([C@H]2CC[C@H](NS(=O)(=O)c3ccc4[nH]c(-c5ccccc5)nc4c3)CC2)o1 [Example 585, N-((1r,4r)-4-(5-tert-butyl-1,3,4-oxadiazol-2-yl)cyclohexyl)-2-phenyl-1H-benzo[d]imidazole-5-sulfonamide]",0.781 µM
4,"CC(C)c1nnc([C@H]2CC[C@H](NS(=O)(=O)c3ccc4[nH]c(Nc5ccccc5)nc4c3)CC2)o1 [Example 595, N-((1r,4r)-4-(5-isopropyl-1,3,4-oxadiazol-2-yl)cyclohexyl)-2-(phenylamino)-1H-benzo[d]imidazole-5-sulfonamide]",0.259 µM
5,"C[C@@H](NC(=O)[C@H]1CC[C@H](NS(=O)(=O)c2ccc3[nH]c(-c4ccc(N5CCN(C)CC5)cc4)nc3c2)CC1)c1ccccc1 [Example 575, (1r,4R)-4-(2-(4-(4-methylpiperazin-1-yl)phenyl)-1H-benzo[d]imidazole-5-sulfonamido)-N-((R)-1-phenylethyl)cyclohexanecarboxamide]",< 0.01 µM
6,"O=C(Nc1cccc2ccccc12)[C@H]1CC[C@H](NS(=O)(=O)c2ccc3[nH]c(-c4ccccc4)nc3c2)CC1 [Example 645, (1r,4r)-N-(naphthalen-1-yl)-4-(2-phenyl-1H-benzo[d]imidazole-5-sulfonamido)cyclohexanecarboxamide]",1.06 µM
7,"Cn1c(-c2ccccc2)cc2cc(S(=O)(=O)N[C@H]3CC[C@H](C(=O)N[C@H](CC(=O)OC(C)(C)C)c4ccccc4)CC3)ccc21 [Example 94, (R)-tert-butyl 3-((1r,4R)-4-(1-methyl-2-phenyl-1H-indole-5-sulfonamido)cyclohexanecarboxamido)-3-phenylpropanoate]",0.075 µM
8,"CC(=O)c1ccc(Nc2nc3cc(S(=O)(=O)Nc4ccc(C(=O)OC(C)C)cc4)ccc3[nH]2)cc1 [Example 548, isopropyl 4-(2-(4-acetylphenylamino)-1H-benzo[d]imidazole-5-sulfonamido)benzoate]",0.075 µM
9,"O=S(=O)(Nc1ccc(-c2nnc(-c3ccccc3)o2)cc1)c1ccc2nc(-c3ccccc3)[nH]c2c1 [Example 518, 2-phenyl-N-(4-(5-phenyl-1,3,4-oxadiazol-2-yl)phenyl)-1H-benzo[d]imidazole-6-sulfonamide]",3.58 µM
10,"CCC(C)NC(=O)[C@H]1CC[C@H](NS(=O)(=O)c2ccc3[nH]c(-c4cccnc4)cc3c2)CC1 (some centres unmarked) [Example 286, (1r,4r)-N-sec-butyl-4-(2-(pyridin-3-yl)-1H-indole-5-sulfonamido)cyclohexanecarboxamide]",0.342 µM
11,"COCCCNC(=O)[C@H]1CC[C@H](NS(=O)(=O)c2ccc3[nH]c(-c4ccccc4)nc3c2)CC1 [Example 642, (1r,4r)-N-(3-methoxypropyl)-4-(2-phenyl-1H-benzo[d]imidazole-5-sulfonamido)cyclohexanecarboxamide]",1.34 µM
